Experimental findings from PubChem BioAssay AID1963835 (Molecular Pharmacology Branch, DTP, NCI, 2024) are described below.

As usually defined, the viability, T/C is the ratio of treated to control. In general, IC50 refers to the point on the concentration scale where inhibition reaches its midpoint.

Several values for one entry are separate records, joined by “and”; a condition that tells them apart may be missing. Equal entries are not always repeated. Where only a bound is given, the exact number is not on record here.

In this assay the test system is 699152-130-R-J1-PDC complex spheroid viability. The assay is described as follows: Anticancer human tumor 699152-130-R-J1-PDC patient-derived pancreatic carcinoma cell line growth inhibition [POLQ]. Conditions: for viability, T/C: stronger effect = lower value. As to the method:
Multicellular complex tumor spheroid response to Polymerase (POL) inhibitors (novobiocin, ART-558, RP6685) in combination with a variety of drugs and investigational agents in selected tumor cell lines
The POL inhibitors (novobiocin, ART-558, and RP6685) were evaluated both individually and in combination with standard of care and investigational anticancer small molecules within a complex spheroid model of solid tumors. . Complex spheroids include a stromal component modeled by human endothelial cells (HUVEC) and fibroblasts modeled by human mesenchymal stem cells (MSCs). The concentration ranges selected for each drug and investigational agent were based upon clinically achievable concentrations if the clinical Cmax of the agent was known.
Compounds. The drugs and investigational agents: novobiocin (NSC847541), ART-558 (NSC835418), RP-6685 (NSC848927), peposertib (NSC802822), ceralasertib (NSC780249), elimusertib (NSC800525), camonsertib (NSC841442), AZD-1390 (NSC803789), olaparib (NSC753686), talazoparib (NSC767125), rucaparib (NSC756644), sotorasib (NSC818433), MRTX-1133 (NSC836407), SN-38 (NSC673596), topotecan (NSC609699), epotoside (NSC141540), doxorubicin (NSC123127), gemcitabine (NSC613327), 5-fluorouracil (NSC19893), paclitaxel (NSC125973), vemurafenib (NSC761431), MSA-2 (NSC828583), SN-011 (NSC837082), adavosertib (NSC754352), prexasertib (NSC758257), carboplatin (NSC241240) and oxaliplatin (NSC266046), were obtained from the National Cancer Institute (NCI) Developmental Therapeutics Program Chemical Repository (21). The FDA-approved anticancer drug set is available from the Developmental Therapeutics Program at https://dtp.cancer.gov/organization/dscb/obtaining/. […] The stock solutions were prepared in dimethyl sulfoxide (DMSO, Sigma-Aldrich, St. Louis, MO, cat. D2650), except for the platinum compounds which were prepared in saline (Quality Biological, Gaithersburg, MD, cat. 114-055-101), at 800-fold the tested concentration and stored at -70 degrees C prior to their use. All drugs and investigational agents were tested over a range starting from a high concentration at or near the clinical Cmax and decreasing in half-log increments. If the clinical Cmax for an agent had not been determined, the highest concentration tested was 10 microM, except for SN-38, which was tested at a high concentration of 1 microM.
Cell Culture. All cells were maintained in an incubator at 37 degrees C and 5% CO2 with 95% humidity. The PDC lines were cultured according to standard operating procedures established by the NCI PDMR (https://pdmr.cancer.gov). Table 3 of the manuscript, lists the cell lines along with the number of the three cell types plated to form the mct-spheroids and media for tumor cell growth. After thawing, all PDC lines, except 997537-175-T-J1-PDC and 415267-285-R-J2-PDC, were cultured in Matrigel-coated flasks prepared with a working solution of 1X Ham's F-12 nutrient mix, without supplementation (Thermo Fisher Scientific, cat. 11765054), 100 U/mL penicillin-streptomycin (Thermo Fisher Scientific, cat. 15140122), and 2.5% Matrigel (Corning Inc., Corning, NY, cat. 354248) for the first three passages. The two PDC lines 997537-175-T-J1-PDC and 415267-285-R-J2-PDC were cultured on uncoated flasks. The 857933-349-R-J2-PDC line was cultured in 6C/Colon 1B media containing advanced DMEM/F-12 (Thermo Fisher Scientific, cat. 12634028), 10 mM HEPES (Thermo Fisher Scientific, cat. 15630080), 1X GlutaMAX supplement (Thermo Fisher Scientific, cat. 35050061), 0.1 mg/mL primocin (InvivoGen, San Diego, CA, cat. ant-pm-2), 10% defined fetal bovine serum, heat inactivated (HyClone Laboratories Inc., Logan, UT, cat. SH30070.03HI), 50% L-WRN conditioned media (ATCC, cat. CRL-3276), 1.25 mM N-Acetyl-L-cysteine (Sigma-Aldrich, cat. A9165), 10 mM nicotinamide (Sigma-Aldrich, cat. N0636), 1X B-27 supplement (Thermo Fisher Scientific, cat. 17504044), 1X N-2 supplement (Thermo Fisher Scientific, cat. […]
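Note: spheroids exposed to agents for 7 days before viability reading.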
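Throughout, for viability, T/C: percent of DMSO vehicle control viability so 100% = vehicle and 0% = no viable signal.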

With `CC1COCCN1c1cc(-c2ccnn2C)c2ccnc(-c3ccn[nH]3)c2n1` (stereo not drawn), the viability, T/C by setting is: (compound 0.0316 µM) 94.9% and 97.6% and 88.8%; (compound 0.1 µM) 89.1% (2×) and 80.8%; (compound 0.316 µM) 71.1% and 68.5% and 77.8%; (compound 1 µM) 63.7% and 58.2% and 58.9%; (compound 3.16 µM) 49% and 54.1% and 49.1%; (compound 10 µM) 56.3% and 58.4% and 50.5%. Also, the IC50 (curve of compound) was > 10 µM and 5.9 µM.

For `COc1ccc([C@@H](O)c2cc(-c3ncnc4cc(N5CCOCC5)ccc34)c(F)cc2Cl)nn1` + COC1C(OC(N)=O)C(O)C(Oc2ccc3c(O)c(NC(=O)c4ccc(O)c(CC=C(C)C)c4)c(=O)oc3c2C)OC1(C)C, the IC50 is, setting by setting: (curve of first compound, second compound 0.0316 µM) 3.83 µM; (curve of first compound, second compound 0.1 µM) 4.13 µM; (curve of first compound, second compound 0.316 µM) 3.83 µM; (curve of first compound, second compound 1 µM) 3.58 µM; (curve of first compound, second compound 3.16 µM) 4.02 µM; (curve of first compound, second compound 10 µM) 4.25 µM. Besides, the viability, T/C is 94.5% (second compound 0.0316 µM, first compound 0.0316 µM); 96.9% (second compound 0.0316 µM, first compound 0.1 µM); 85.6% (second compound 0.0316 µM, first compound 0.316 µM); 82.8% (second compound 0.0316 µM, first compound 1 µM); 53.9% (second compound 0.0316 µM, first compound 3.16 µM); 26.3% (second compound 0.0316 µM, first compound 10 µM). For the same compound, the viability, T/C was 112% (second compound 0.1 µM, first compound 0.0316 µM); 87% (second compound 0.1 µM, first compound 0.1 µM); 87% (second compound 0.1 µM, first compound 0.316 µM); 83% (second compound 0.1 µM, first compound 1 µM); 56.1% (second compound 0.1 µM, first compound 3.16 µM); 27.4% (second compound 0.1 µM, first compound 10 µM). Further, the viability, T/C (second compound 0.316 µM, first compound 0.0316 µM) was 113%; the viability, T/C (second compound 0.316 µM, first compound 0.1 µM) is 107%; the viability, T/C (second compound 0.316 µM, first compound 0.316 µM) is 92.2%; the viability, T/C (second compound 0.316 µM, first compound 1 µM) is 80.4%; the viability, T/C (second compound 0.316 µM, first compound 3.16 µM) is 54.7%; the viability, T/C (second compound 0.316 µM, first compound 10 µM) is 24%. Also, the viability, T/C is, setting by setting: (second compound 1 µM, first compound 0.0316 µM) 118%; (second compound 1 µM, first compound 0.1 µM) 98.1%; (second compound 1 µM, first compound 0.316 µM) 96.9%; (second compound 1 µM, first compound 1 µM) 70.1%; (second compound 1 µM, first compound 3.16 µM) 58.5%; (second compound 1 µM, first compound 10 µM) 22.6%. Moreover, the viability, T/C is 98.3% (second compound 3.16 µM, first compound 0.0316 µM); 108% (second compound 3.16 µM, first compound 0.1 µM); 86.6% (second compound 3.16 µM, first compound 0.316 µM); 88.7% (second compound 3.16 µM, first compound 1 µM); 56.2% (second compound 3.16 µM, first compound 3.16 µM); 21.6% (second compound 3.16 µM, first compound 10 µM). Moreover, the viability, T/C was 101% (second compound 10 µM, first compound 0.0316 µM); 90.8% (second compound 10 µM, first compound 0.1 µM); 90.9% (second compound 10 µM, first compound 0.316 µM); 71.6% (second compound 10 µM, first compound 1 µM); 60.6% (second compound 10 µM, first compound 3.16 µM); 27.7% (second compound 10 µM, first compound 10 µM).

On to `COc1cccc2c1C(=O)c1c(O)c3c(c(O)c1C2=O)CC(O)(C(=O)CO)CC3OC1CC(N)C(O)C(C)O1` (stereo not drawn), for which the viability, T/C (compound 0.0316 µM) was 72.5% and 86.9% and 85.1%; the viability, T/C (compound 0.1 µM) was 60.1% and 60.5% and 89.2%; the viability, T/C (compound 0.316 µM) was 48.5% and 51.9% and 44.8%; the viability, T/C (compound 1 µM) is 31.2% and 30.2% and 27.1%; the viability, T/C (compound 3.16 µM) is 2.58% and 1.68% and 2.6%; the viability, T/C (compound 10 µM) was 11.1% and 13.1% and 12.4%. The IC50 (curve of compound) is 0.286 µM and 0.257 µM and 0.32 µM.

As for `CC1COCCN1c1cc(C2(S(C)(=N)=O)CC2)nc(-c2ccnc3[nH]ccc23)n1` (stereo not drawn), the viability, T/C reads like this: (compound 0.0316 µM) 105% and 93.7% and 91.8%; (compound 0.1 µM) 102% and 97.1% and 94.4%; (compound 0.316 µM) 90.2% and 91.5% and 105%; (compound 1 µM) 88.6% and 97.4% and 88.8%; (compound 3.16 µM) 76% and 82.6% and 74%; (compound 10 µM) 73.1% and 68.3% and 65.9%. Besides, for the setting “curve of compound”, the IC50 is greater than 10 µM.
